Values of other authors as cited in US20040126318A1, “Methods, formulations and kits for monitoring and diagnosing gastric emptying and gastroparesis, and formulations for determining gastrointestinal motility” (priority 2002, published 2004).

Structure (SMILES) | cardiac side effects (reason for removal from the market by the FDA) | patients with serious side effects (drowsiness, nightmares, depression, Parkinsonism) (patients treated with this drug)
COc1cc(N)c(Cl)cc1C(=O)NC1CCN(CCCOc2ccc(F)cc2)CC1OC (centres unmarked) [cisapride] | produced severe and sometimes fatal arrhythmias | 
CCN(CC)CCNC(=O)c1cc(Cl)c(N)cc1OC [Metochlopramide] |  | up to 50%
